Measurements as given in patent publication US11420947B2, “(S)-n-hydroxy-2-(2-(4-methoxyphenyl)butanamido)thiazole-5-carboxamide and pharmaceutically acceptable salts thereof” (TRANSLATIONAL DRUG DEVELOPMENT, LLC, priority 2018, dated 2022).

How the values were obtained:
[1] = Pharmacokinetics studies in mice; format: in vivo; details: PO-5 mg/kg
Excerpt: Volume of distribution is one of the most important pharmacokinetic properties of a drug candidate and for an anticancer drug can result in increased drug distribution to the tumor.

SN12CCP = test: CellTiter-Glo cell viability assay; format: cell-based; details: SN12CCP, RENAL, RCC, 72 hours
Protocol: (§1) Cell viability in the presence of varying concentrations of the above listed compounds at different time points was used to assess cytotoxicity and the effect of the compounds on cell proliferation.
(§2) Cell viability was measured by the CellTiter-Glo® cell viability assay from Promega (Madison, Wis.). The CellTiter-Glo® Luminescent Cell Viability Assay is a homogeneous method to determine the number of viable cells in culture based on quantitation of the ATP present, which signals the presence of metabolically active cells. Following treatment, CellTiter-Glo® is added to treatment wells and incubated at 37° C. luminescence values were measured at using a Molecular Devices Spectramax microplate reader
(§3) Cells were grown to 70% confluency, trypsinized, counted, and seeded in 96 well flat-bottom plates at a final concentration of 2.5×10^3-5×10^3 cells/well (Day 0). Cells were allowed to incubate in growth media for 24 hours. Treatment with the test agents or standard agents began on Day 1 and continued for 72 hours. At the 72-hour timepoint, treatment containing media was removed. Viable cell numbers are quantified by the CellTiter-Glo® cell viability assay as described above. Results from these studies were used to calculate an IC50 value (concentration of drug that inhibits cell growth by 50 percent of control) for each compound.
(§4) For single agent and combination studies, data from each experiment was collected and expressed as % Cell Growth using the following calculation: % Cell Growth=(ftest/fvehicle)×100
(§5) Where test is the fluorescence of the tested sample, and fvehicle is the fluorescence of the vehicle in which the drug is dissolved. Dose response graphs and IC50 values were generated using Prism 6 software (GraphPad) using the following equation: Y=(Top-Bottom)/(1+10^((logIC^50^-X)-HillSlope))

THP-1 = test: CellTiter-Glo cell viability assay; format: cell-based; details: Homo sapiens; THP-1, HEMATOPIETIC, AML, 72 hours
Protocol: as §1, §2, §3, §4, §5

N87 = test: CellTiter-Glo cell viability assay; format: cell-based; details: N87, GASTRIC, Carcinoma, 72 hours
Protocol: as §1, §2, §3, §4, §5

Panc-1 = test: CellTiter-Glo cell viability assay; format: cell-based; details: Homo sapiens; Panc-1, PANCREAS, Pancreatic, 72 hours
Protocol: as §1, §2, §3, §4, §5

LK-2 = test: CellTiter-Glo cell viability assay; format: cell-based; details: Homo sapiens; LK-2, LUNG, Carcinoma, 72 hours
Protocol: as §1, §2, §3, §4, §5

MDA-MB-157 = test: CellTiter-Glo cell viability assay; format: cell-based; details: Homo sapiens; MDA-MB-157, BREAST, Medullary Carcinoma, 72 hours
Protocol: as §1, §2, §3, §4, §5

H1975 = test: CellTiter-Glo cell viability assay; format: cell-based; details: Homo sapiens, NCI-H1975; H1975, LUNG, NSCLC, 72 hours
Protocol: as §1, §2, §3, §4, §5

MC38 = test: CellTiter-Glo cell viability assay; format: cell-based, Murine; details: Mus musculus, MC-38; MC38, MURINE COLON, Colon, 72 hours
Protocol: as §1, §2, §3, §4, §5

L1210 = test: CellTiter-Glo cell viability assay; format: cell-based, Murine; details: Mus musculus; L1210, HEMATOPIETIC, Murine Leukemia, 72 hours
Protocol: as §1, §2, §3, §4, §5

CT26 = test: CellTiter-Glo cell viability assay; format: cell-based, Murine; details: Mus musculus; CT26, MURINE COLON, Colon, 72 hours
Protocol: as §1, §2, §3, §4, §5

GL261 = test: CellTiter-Glo cell viability assay; format: cell-based, Murine; details: Mus musculus; GL261, MURINE BRAIN, Murine Glioma, 72 hours
Protocol: as §1, §2, §3, §4, §5

4T1 = test: CellTiter-Glo cell viability assay; format: cell-based, Murine; details: Mus musculus; 4T1, BREAST, Murine Breast Tumor, 72 hours
Protocol: as §1, §2, §3, §4, §5

IGROV-1 = test: CellTiter-Glo cell viability assay; format: cell-based, Human; details: IGROV-1, OVARIAN, Human Ovarian Adenocarcinoma, 72 hours
Protocol: as §1, §2, §3, §4, §5

A2780 = test: CellTiter-Glo cell viability assay; format: cell-based, Human; details: A2780, OVARIAN, Human Ovarian, 72 hours
Protocol: as §1, §2, §3, §4, §5

OVCAR-8 = test: CellTiter-Glo cell viability assay; format: cell-based, Human; details: OVCAR-8, OVARIAN, Human Ovarian Carcinoma, 72 hours
Protocol: as §1, §2, §3, §4, §5

A2780cp = test: CellTiter-Glo cell viability assay; format: cell-based, Human; details: A2780C/P; A2780cp, OVARIAN, Platinum res-Human Ovarian, 72 hours
Protocol: as §1, §2, §3, §4, §5

BIN-67 = test: CellTiter-Glo cell viability assay; format: cell-based, Human; details: BIN-67, OVARIAN, Human Small Cell Carcinoma of the Ovary, 72 hours
Protocol: as §1, §2, §3, §4, §5

OVCAR-3 = test: CellTiter-Glo cell viability assay; format: cell-based, Human; details: OVCAR-3, OVARIAN, Human Ovarian Carcinoma, 72 hours
Protocol: as §1, §2, §3, §4, §5

SCCOHT-1 = test: CellTiter-Glo cell viability assay; format: cell-based, Human; details: SCCOHT-1, OVARIAN, Human Small Cell Carcinoma of the Ovary, 72 hours
Protocol: as §1, §2, §3, §4, §5

SKOV-3 = test: CellTiter-Glo cell viability assay; format: cell-based, Human; details: SK-OV-3; SKOV-3, OVARIAN, Human Ovarian Carcinoma, 72 hours
Protocol: as §1, §2, §3, §4, §5

COV434 = test: CellTiter-Glo cell viability assay; format: cell-based, Human; details: COV434, OVARIAN, Human Ovarian Granulosa, 72 hours
Protocol: as §1, §2, §3, §4, §5

CCC(C(=O)Nc1ncc(C(=O)NO)s1)c1ccc(OC)cc1 (racemic) [#1, N-hydroxy-2-(2-(4-methoxyphenyl)butanamido)thiazole-5-carboxamide]
AUC % Extrap [1]: 5.51% | CI/Fobs [1]: 483.2 mL/min/kg | AUC(0-inf) ([1]; mouse, in vivo): 172 ng·h/mL | AUC(0-t) ([1]; mouse, in vivo): 163 ng·h/mL | Cmax ([1]; mouse, in vivo): 30.8 ng/mL | Tmax ([1]; mouse, in vivo): 0.5 h | bioavailability ([1]; mouse, in vivo): 14.3% | half-life ([1]; mouse, in vivo): 5.44 h | Vd/F ([1]; mouse, in vivo, read-out: Vz/Fobs): 228 L/kg | IC50 (SN12CCP): 126 nM | IC50 (THP-1): 65 nM | IC50 (N87): 120 nM | IC50 (Panc-1): 631 nM | IC50 (LK-2): 196 nM | IC50 (MDA-MB-157): 169 nM | IC50 (H1975): 114 nM | IC50 (MC38): 128 nM | IC50 (L1210): 59 nM | IC50 (CT26): 1320 nM | IC50 (GL261): 372 nM | IC50 (4T1): 36 nM | IC50 (IGROV-1): 78 nM | IC50 (A2780): 48 nM | IC50 (OVCAR-8): 36 nM | IC50 (A2780cp): 117 nM | IC50 (BIN-67): 68 nM | IC50 (OVCAR-3): 65 nM | IC50 (SCCOHT-1): 341 nM | IC50 (SKOV-3): 113 nM | IC50 (COV434): 47 nM
